Results taken from patent EP4768499A1, “MACROCYCLIC PEPTIDE COMPOUND HAVING CELL MEMBRANE PERMEABILITY AND METABOLIC STABILITY, AND LIBRARY CONTAINING SAME” (Chugai Seiyaku Kabushiki Kaisha, priority 2023, dated 2025).
Starred links: 1 amine or outer side, 2 acyl side, 3 side chain; linkers in the order of their positions; H or OH if unused. Positions of bridges follow the written chain, without caps; N, C: chain ends. Non-standard residues stand in square brackets, D forms with d. Residues, ends and D or L forms follow the SMILES beside them. *: point of attachment. NMedβ3hAla = C[C@H](CC(=O)[*:2])N(C)[*:1]; NMeF = CN[C@@H](Cc1ccccc1)C(=O)O; NMeI = CC[C@H](C)[C@H](NC)C(=O)O; NMeT = CN[C@H](C(=O)O)[C@@H](C)O; NMeD = CN[C@@H](CC(=O)O)C(=O)O; NMeL = CN[C@@H](CC(C)C)C(=O)O; NMeV = CN[C@H](C(=O)O)C(C)C; NMeAbu = CC[C@H](NC)C(=O)O; NMeA = CN[C@@H](C)C(=O)O; Piperidide = C1CCN(*)CC1; dNMeA = CN[C@H](C)C(=O)O; Abu = CC[C@H](N)C(=O)O; Sar = CNCC(=O)O; tBu = CC(C)(C)*

Key:
[1] = Metabolic stability test: liver microsomal stability assay; format: in vitro ADME, mouse; conditions: mouse liver microsomes 0.5 mg protein/mL, compound 1 µM; for microsomal CLint at 1 µM: male, pH 7.4, presence of NADPH, read-out: Mouse Hepatic Microsome CLh,int NADPH(+); for Mouse Hepatic Microsome CLh,int NADPH(-): absence of NADPH
[2] = Membrane permeability test using Caco-2 cells with preincubation; format: in vitro ADME; conditions: Caco-2; preincubation 20 to 24 hours; Apical FaSSIF/HBSS pH 6.0, Basal HBSS 4% BSA pH 7.4; 180 minutes; read-out: Caco2 Papp
Caco-2 cells = assay: as above; format: in vitro ADME; conditions: Caco-2 cells, preincubation 20 to 24 hours; apical FaSSIF/HBSS 1% DMSO pH 6.0, basal HBSS 4% BSA pH 7.4; basal sample at 180 minutes

Structure (SMILES) | microsomal CLint at 1 µM [1] [µL/min/mg] | Mouse Hepatic Microsome CLh,int NADPH(-) [1] [µL/min/mg Protein] | Papp A→B [2] [×10⁻⁶ cm/s] | Caco2 Papp (10^-6 cm/sec) (Caco-2 cells)
CC[C@@H]1NC(=O)[C@H](Cc2ccccc2)N(C)C(=O)[C@@H]2CCCN2C(=O)[C@H](CC(C)C)N(C)C(=O)[C@H](C(C)C)NC(=O)[C@H](CC(C)C)N(C)C(=O)[C@H]([C@@H](C)O)NC(=O)[C@H](Cc2ccccc2)N(C)C(=O)CN(C)C(=O)C[C@@H](C)N(C)C(=O)[C@H](C(C)C)NC(=O)[C@H](COC(C)(C)C)NC(=O)[C@H](C)N(C)C1=O [pd146] (cyclo([Abu][NMeA]S(tBu)V[NMedβ3hAla][Sar][NMeF]T[NMeL]V[NMeL]P[NMeF])) | 20.3 | 14.1 | 0.2 | 0.20 10^-6 cm/sec
CC[C@H]1C(=O)N[C@@H](COC(C)(C)C)C(=O)N(C)[C@@H](C(C)C)C(=O)N(C)[C@@H](C)C(=O)N(C)[C@H](C)CC(=O)N[C@H](C(C)C)C(=O)N(C)[C@@H](CC(C)C)C(=O)N[C@@H](C)C(=O)N(C)[C@@H](C(C)C)C(=O)N(C)[C@@H](CC(C)C)C(=O)NCC(=O)N(C)[C@@H]([C@@H](C)O)C(=O)N(C)[C@@H](Cc2ccccc2)C(=O)N1C [pd147] (cyclo(A[NMeV][NMeL]G[NMeT][NMeF][NMeAbu]S(tBu)[NMeV][NMeA][NMedβ3hAla][dV][NMeL])) | 13.1 | 14.8 | 0.26 | 0.26 10^-6 cm/sec
CC[C@H](C)[C@@H]1NC(=O)[C@H](CC(C)C)N(C)C(=O)[C@H](C)N(C)C(=O)[C@H](C)NC(=O)C[C@@H](C)N(C)C(=O)[C@H](CC(C)C)N(C)C(=O)[C@H](C)N(C)C(=O)CN(C)C(=O)[C@H]([C@@H](C)O)NC(=O)[C@H](Cc2ccccc2)N(C)C(=O)[C@H](CC(C)C)N(C)C(=O)[C@H](C(C)C)NC(=O)[C@H]([C@@H](C)CC)N(C)C1=O [pd148] (cyclo(A[NMeA][NMeL]I[NMeI]V[NMeL][NMeF]T[Sar][NMeA][NMeL][NMedβ3hAla])) | 25.2 | 16.8 | 0.12 | 0.12 10^-6 cm/sec
CC[C@@H]1NC(=O)[C@H](Cc2ccccc2)N(C)C(=O)[C@@H]2CCCN2C(=O)[C@H](CC(C)C)N(C)C(=O)[C@H](C(C)C)NC(=O)[C@H](CC(C)C)N(C)C(=O)[C@H]([C@@H](C)O)NC(=O)[C@H](Cc2ccccc2)N(C)C(=O)CN(C)C(=O)C[C@@H](C)N(C)C(=O)[C@H](C(C)C)NC(=O)[C@H](CC)N(C)C(=O)[C@H](C)N(C)C1=O [pd149] (cyclo([Abu][NMeA][NMeAbu]V[NMedβ3hAla][Sar][NMeF]T[NMeL]V[NMeL]P[NMeF])) | 10.8 | 1.5 | 0.2 | 0.20 10^-6 cm/sec

Other lines, results leading:

microsomal CLint at 1 µM [1] [µL/min/mg] | Mouse Hepatic Microsome CLh,int NADPH(-) [1] [µL/min/mg Protein] | Papp A→B [2] [×10⁻⁶ cm/s] | Caco2 Papp (10^-6 cm/sec) (Caco-2 cells) | Structure (SMILES)
15.2 | 4.2 | 0.29 | 0.29 10^-6 cm/sec | CC[C@H]1C(=O)N(C)[C@H](C)CC(=O)N(C)[C@H](C)C(=O)N(C)[C@@H](C)C(=O)N(C)[C@@H](Cc2ccccc2)C(=O)N[C@@H](C(C)C)C(=O)N(C)[C@@H](CC(C)C)C(=O)N(C)[C@@H]([C@@H](C)O)C(=O)N(C)CC(=O)N[C@@H](C)C(=O)N(C)[C@@H](CC(C)C)C(=O)N[C@@H](COC(C)(C)C)C(=O)N(C)[C@@H](Cc2ccccc2)C(=O)N1C [pd150] (cyclo(A[NMeL]S(tBu)[NMeF][NMeAbu][NMedβ3hAla][dNMeA][NMeA][NMeF]V[NMeL][NMeT][Sar]))
29.6 | 22.4 | 0.39 | 0.39 10^-6 cm/sec | CC[C@H](C)[C@@H]1NC(=O)[C@H]([C@@H](C)CC)N(C)C(=O)[C@@H](C)NC(=O)C[C@@H](C(=O)N2CCCCC2)N(C)C(=O)[C@H](C(C)C)NC(=O)[C@H](Cc2ccccc2)N(C)C(=O)[C@H](COC(C)(C)C)NC(=O)[C@H](CC(C)C)N(C)C(=O)[C@H](C)NC(=O)CN(C)C(=O)[C@H](CC(C)C)N(C)C(=O)[C@H](C)N(C)C(=O)[C@H](Cc2ccccc2)N(C)C1=O [pd151] ([dA][NMeI]I[NMeF][NMeA][NMeL][Sar]A[NMeL]S(tBu)[NMeF]V[NMeD]-Piperidide; lactam N-13)
